Values quoted from earlier work in US20100113469A1, “COMBINATION THERAPY FOR THE TREATMENT-OF LOWER URINARY TRACT SYMPTOMS” (MERCK & CO., INC., priority 2007, published 2010).

Legend:
patients = settings: instilled directly into the bladder
rats [1] = settings: hyperreflexia paradigms, intravenous
rats [2] = settings: detrusor instability paradigm, oral
rats [3] = settings: intravenous
human bladders = settings: in vitro
rats [4] = tested on: rats

Q: With `C=C(C)[C@]12C[C@@H](C)[C@@]34O[C@](Cc5ccccc5)(O[C@@H]1[C@@H]3C=C(COC(=O)Cc1ccc(O)c(OC)c1)C[C@]1(O)C(=O)C(C)=C[C@@H]41)O2` [Resinferatoxin] as the compound, how does the “potency relative to capsaicin” value (C-fibers) read?
A: ~100 fold

Q: For `COc1cc(CNC(=O)CCCC/C=C/C(C)C)ccc1O` [Capsaicin, capsaicin], which “patients with beneficial effects (i.e. increased bladder capacity)” value (patients) is on record?
A: ~70%

Q: With `Cc1ccc(-c2c3n(c(=O)c4ncccc24)CC[C@@H](C)CN(Cc2cc(C(F)(F)F)cc(C(F)(F)F)c2)C3=O)cc1` [TAK-637] as the compound, how does the “carbachol or electrical field stimulation induced contractions” value (isolated bladder strips) read?
A: had no effect

Q: And the “micturition reflex induced by topical application of capsaicin onto the bladder dome” value (guinea pig; guinea pig, in vivo)?
A: inhibited the micturition reflex

Q: And the “distension-induced rhythmic bladder contractions” value (guinea pig; guinea pig, systemic administration)?
A: decreased the number but not the amplitude

Q: What about the “spinal vesico-vesical reflex induced by electrical stimulation of the proximal cut end of the pelvic nerve” value (guinea pig; spinal animals) of the same compound?
A: inhibits the spinal vesico-vesical reflex

Q: And the “micturition reflex induced by electrical stimulation of the rostral brainstem near the locus coeruleus” value (decerebrate cats; 3 mg/kg i.v.)?
A: did not inhibit

Q: And the voiding efficiency (decerebrate cats; decerebrate cats, 0.1, 0.3, 1 and 3 mg/kg i.v.)?
A: without any significant reduction in voiding efficiency

Q: What about the “maximal increase in bladder capacity” value (decerebrate cats; decerebrate cats, 0.1, 0.3, 1 and 3 mg/kg i.v., dose-dependent) of the same compound?
A: 94%

Q: Which voiding interval (rats [1]) does the source give for `C[C@H](Cc1ccc2c(c1)OC(C(=O)[O-])(C(=O)[O-])O2)NC[C@H](O)c1cccc(Cl)c1.[Na+].[Na+]` [CL316243] here?
A: dose-dependently normalizes voiding interval

Q: What about the spontaneous bladder contractions (rats [2]) of the same compound?
A: dose-dependent inhibition of spontaneous bladder contractions

Q: And the bladder pressure (rats [3])?
A: reduces bladder pressure

Q: And the bladder capacity (rats [3]; cystometric studies)?
A: increases bladder capacity

Q: And the residual urine volume (rats [3]; cystometric studies)?
A: without increasing residual urine volume

Q: For `CCCCCCNC(=O)Nc1ccc(S(=O)(=O)Nc2ccc(CCNC[C@H](O)COc3ccc(O)cc3)cc2)cc1` [L-755507], which “relaxation evoked in control versus obstructed human bladders” value (human bladders) is on record?
A: equivalent

Q: With `CC(=O)NC1(c2ccccc2)CCN(CC[C@H](CN(C)C(=O)c2ccccc2)c2ccc(Cl)c(Cl)c2)CC1` [SR 48968] as the compound, how does the “response in cyclophosphamide-induced model” value (rats [4]; 10 nmol/rat) read?
A: moderate response

Q: Which volume threshold (rats [4]; cyclophosphamide-induced bladder overactivity, i.t. vs i.v.) does the source give for `COc1ccccc1CC(=N)N1C[C@@H]2C(=O)CCC(c3ccccc3)(c3ccccc3)[C@@H]2C1` [RP 67580] here?
A: increased the volume threshold after i.t., but not i.v. administration
